Converted amounts (≈) assume the structure as drawn.
Experiments:
Assay type in all cases: functional
Escherichia coli [1] = experiment: Antibacterial activity against Escherichia coli assessed as bacterial growth inhibition by broth microdilution method
Staphylococcus aureus [2] = experiment: Antibacterial activity against Staphylococcus aureus assessed as bacterial growth inhibition by broth microdilution method
Pseudomonas aeruginosa [3] = experiment: Antibacterial activity against Pseudomonas aeruginosa assessed as bacterial growth inhibition by broth microdilution method
Bacillus subtilis = experiment: Antibacterial activity against Bacillus subtilis assessed as bacterial growth inhibition by broth microdilution method
Staphylococcus aureus [4] = experiment: Antibacterial activity against penicillin-resistant Staphylococcus aureus ATCC 31007 assessed as bacterial growth inhibition by standard dilution assay
Staphylococcus aureus [5] = experiment: Antibacterial activity against methicillin-resistant Staphylococcus aureus ATCC 43300 assessed as bacterial growth inhibition by standard dilution assay
Klebsiella pneumoniae [6] = experiment: Antibacterial activity against erythromycin-resistant Klebsiella pneumoniae ATCC 700603 assessed as bacterial growth inhibition by standard dilution assay
Staphylococcus aureus [7] = experiment: Potency index, ratio of Azithromycin MIC to test compound MIC for antibacterial activity against erythromycin-susceptible Staphylococcus aureus ATCC 25923 assessed as bacterial growth inhibition by standard dilution assay
Staphylococcus aureus [8] = experiment: Antibacterial activity against erythromycin-resistant Staphylococcus aureus clinical isolate assessed as bacterial growth inhibition by standard dilution assay
Staphylococcus aureus [9] = experiment: Antibacterial activity against erythromycin-susceptible Staphylococcus aureus ATCC 25923 assessed as bacterial growth inhibition by standard dilution assay
Staphylococcus aureus [10] = experiment: Potency index, ratio of Clarithromycin MIC to test compound MIC for antibacterial activity against erythromycin-susceptible Staphylococcus aureus ATCC 25923 assessed as bacterial growth inhibition by standard dilution assay
Escherichia coli [11] = experiment: Antibacterial activity against Escherichia coli clinical isolate assessed as bacterial growth inhibition incubated for 24 hrs by disk diffusion method
Staphylococcus aureus [12] = experiment: Antibacterial activity against Staphylococcus aureus clinical isolate assessed as bacterial growth inhibition incubated for 24 hrs by disk diffusion method
Staphylococcus aureus [13] = experiment: Antibacterial activity against Staphylococcus aureus assessed as bacterial growth inhibition
Staphylococcus aureus [14] = experiment: Antibacterial activity against Staphylococcus aureus 209p ATCC 6538P assessed as bacterial growth inhibition incubated for 1 to 2 days by serial dilution method; details: time 1-2 day
Escherichia coli [15] = experiment: Antibacterial activity against Escherichia coli ATCC 25922 assessed as bacterial growth inhibition by broth microdilution method
Staphylococcus aureus [16] = experiment: Antibacterial activity against Staphylococcus aureus ATCC 25923 assessed as bacterial growth inhibition by broth microdilution method
Escherichia coli [17] = experiment: Antibacterial activity against Escherichia coli clinical isolate assessed as bacterial growth inhibition by disk diffusion method
Klebsiella pneumoniae [18] = experiment: Antibacterial activity against Klebsiella pneumoniae clinical isolate assessed as bacterial growth inhibition by disk diffusion method
Pseudomonas putida = experiment: Antibacterial activity against Pseudomonas putida clinical isolate assessed as bacterial growth inhibition by disk diffusion method
Staphylococcus aureus [19] = experiment: Antibacterial activity against Staphylococcus aureus clinical isolate assessed as bacterial growth inhibition by disk diffusion method
Serratia marcescens = experiment: Antibacterial activity against Serratia marcescens clinical isolate assessed as bacterial growth inhibition by disk diffusion method
Streptococcus pneumoniae [20] = experiment: Antibacterial activity against erythromycin-resistant Streptococcus pneumoniae B1 expressing ermB assessed as bacterial growth inhibition incubated for 24 hrs by CLSI based broth microdilution method
Staphylococcus aureus [21] = experiment: Antibacterial activity against methicillin-resistant Staphylococcus aureus ATCC 43300 assessed as bacterial growth inhibition incubated for 24 hrs by CLSI based broth microdilution method
Streptococcus pneumoniae [22] = experiment: Antibacterial activity against erythromycin-resistant Streptococcus pneumoniae AB11 expressing ermB/mefA assessed as bacterial growth inhibition incubated for 24 hrs by CLSI based broth microdilution method
Streptococcus pyogenes = experiment: Antibacterial activity against erythromycin-resistant Streptococcus pyogenes clinical isolate 2 assessed as bacterial growth inhibition incubated for 24 hrs by CLSI based broth microdilution method
Staphylococcus aureus [23] = experiment: Antibacterial activity against penicillin-resistant Staphylococcus aureus ATCC 31007 assessed as bacterial growth inhibition incubated for 24 hrs by CLSI based broth microdilution method
Staphylococcus aureus [24] = experiment: Antibacterial activity against methicillin-resistant Staphylococcus aureus ATCC 43300 infected in neutropenic mouse model of thigh infection assessed as reduction in bacterial load at 20 mg/kg, iv measured after 24 hrs by colony counting method
Staphylococcus aureus [25] = experiment: Antibacterial activity against Staphylococcus aureus assessed as bacterial growth inhibition by CLSI based broth microdilution method
Pseudomonas aeruginosa [26] = experiment: Antibacterial activity against Pseudomonas aeruginosa assessed as bacterial growth inhibition by CLSI based broth microdilution method
Escherichia coli [27] = experiment: Antibacterial activity against Escherichia coli assessed as bacterial growth inhibition by CLSI based broth microdilution method
Staphylococcus aureus [28] = experiment: Antibacterial activity against Staphylococcus aureus ATCC 43300 assessed as bacterial growth inhibition incubated for 24 hrs by broth microdilution method
Staphylococcus aureus [29] = experiment: Antibacterial activity against Staphylococcus aureus clinical isolate AD3 assessed as bacterial growth inhibition incubated for 24 hrs by broth microdilution method
Staphylococcus aureus [30] = experiment: Antibacterial activity against Staphylococcus aureus clinical isolate 144 assessed as bacterial growth inhibition incubated for 24 hrs by broth microdilution method
Staphylococcus aureus [31] = experiment: Antibacterial activity against Staphylococcus aureus ATCC 29213 assessed as bacterial growth inhibition incubated for 24 hrs by broth microdilution method
Staphylococcus aureus [32] = experiment: Antibacterial activity against Staphylococcus aureus ATCC 43300 assessed as bacterial growth inhibition incubated for 24 hrs by CLSI based broth dilution method
Staphylococcus aureus [33] = experiment: Antibacterial activity against Staphylococcus aureus clinical isolate AD3 assessed as bacterial growth inhibition incubated for 24 hrs by CLSI based broth dilution method
Staphylococcus aureus [34] = experiment: Antibacterial activity against Staphylococcus aureus ATCC 29213 assessed as bacterial growth inhibition incubated for 24 hrs by CLSI based broth dilution method
Staphylococcus aureus [35] = experiment: Antibacterial activity against Staphylococcus aureus clinical isolate 144 assessed as bacterial growth inhibition incubated for 24 hrs by CLSI based broth dilution method

Molecule CC(=O)Nc1ccc(S(=O)(=O)n2cc(CN3CCS(=O)(=O)CC3)nn2)cc1 has an MIC (Escherichia coli [1]) of 1.56 µg/mL (≈ 3.77 µM), an MIC (Staphylococcus aureus [2]) of 1.56 µg/mL (≈ 3.77 µM) and an MIC (Pseudomonas aeruginosa [3]) of 1.56 µg/mL (≈ 3.77 µM). The MIC (Bacillus subtilis) was 1.56 µg/mL (≈ 3.77 µM).
CCCCCc1ccc(-c2cn(CC(=O)NNC(=O)O[C@H]3C[C@H](C)[C@@H](O[C@@H]4[C@H](C)[C@@H](O[C@H]5O[C@@H](C)C[C@@H](N(C)C)[C@@H]5O)[C@@](C)(O)C[C@@H](C)CN(C)[C@H](C)[C@H]5OC(=O)O[C@]5(C)[C@H](CC)OC(=O)[C@@H]4C)C[C@@]3(C)OC)nn2)cc1 gave an MIC (Staphylococcus aureus [4]) of 2 µg/mL (≈ 1.84 µM), an MIC (Staphylococcus aureus [5]) of 2 µg/mL (≈ 1.84 µM) and an MIC (Klebsiella pneumoniae [6]) of at least 128 µg/mL. For the same molecule, the Ratio (Staphylococcus aureus [7]) was over 32, the MIC (Staphylococcus aureus [8]) was at least 128 µg/mL and the MIC (Staphylococcus aureus [9]) was 2 µg/mL (≈ 1.84 µM). For the same molecule, the Ratio (Staphylococcus aureus [10]) was over 32.
For Cc1ccccc1-n1cc(Cn2c3ccccc3c(=O)c3ccccc32)nn1, the MIC (Escherichia coli [11]) was 10.1 µg/mL (≈ 27.6 µM) and the MIC (Staphylococcus aureus [12]) was 10.1 µg/mL (≈ 27.6 µM).
Molecule COc1cc2c(cc1OC)C[N+](Cc1cn(-c3ccc(C(C)(C)C)cc3)nn1)(Cc1cn(-c3ccc(C(C)(C)C)cc3)nn1)CC2.[Br-] has an MIC (Staphylococcus aureus [13]) of 4 µg/mL.
COC(=O)c1cc2ccc(=O)oc2cc1-c1cn(-c2ccc(C(=O)O)cc2)nn1 gave an MIC (Staphylococcus aureus [14]) of 0.31 µg/mL (≈ 0.792 µM).
Work on C=CCCCCC1CC(=O)N1Cc1cn(-c2cccc([N+](=O)[O-])c2)nn1 (configuration not stated) yielded an MIC (Pseudomonas aeruginosa [3]) of 1.25 µg/mL (≈ 3.52 µM) and an MIC (Bacillus subtilis) of 1.25 µg/mL (≈ 3.52 µM).
Molecule Clc1ccc(Cn2cc(Cn3nnc(C4=Cc5cc(Cl)ccc5OC4)n3)nn2)c(Cl)c1 has an MIC (Escherichia coli [15]) of 6.5 µg/mL (≈ 13.7 µM) and an MIC (Staphylococcus aureus [16]) of 6.5 µg/mL (≈ 13.7 µM).
CO/N=C(\C(=O)N[C@@H]1C(=O)N2C(C(=O)O)=C(CSc3nc(=O)c(O)nn3C)CS[C@H]12)c1csc(N)n1 [CEFTRIAXONE] showed an MIC (Staphylococcus aureus [14]) of 0.97 µg/mL (≈ 1.75 µM).
With Cc1ccc2c(c1)c(=O)c1ccccc1n2Cc1cn(CC(=O)Nc2ccccc2C)nn1 the MIC (Escherichia coli [17]) was 12.3 µg/mL (≈ 28.1 µM), the MIC (Klebsiella pneumoniae [18]) was 12.3 µg/mL (≈ 28.1 µM) and the MIC (Pseudomonas putida) was 12.3 µg/mL (≈ 28.1 µM). It also gave an MIC (Staphylococcus aureus [19]) of 12.3 µg/mL (≈ 28.1 µM) and an MIC (Serratia marcescens) of 12.3 µg/mL (≈ 28.1 µM).
For C=CCCCCC1CC(=O)N1Cc1cn(-c2cccc(Cl)c2)nn1 (configuration not stated), the MIC (Pseudomonas aeruginosa [3]) was 1.25 µg/mL (≈ 3.62 µM) and the MIC (Bacillus subtilis) was 1.25 µg/mL (≈ 3.62 µM).
With CC[C@H]1OC(=O)[C@H](C)[C@@H](O[C@H]2C[C@@](C)(OC)[C@@H](O)[C@H](C)O2)[C@H](C)[C@@H](O[C@@H]2O[C@H](C)C[C@H](N(C)C)[C@H]2O)[C@](C)(O)C[C@@H](C)CN(C)[C@H](C)[C@@H](O)[C@]1(C)O [AZITHROMYCIN] the MIC (Staphylococcus aureus [4]) was over 128 µg/mL, the MIC (Staphylococcus aureus [5]) was over 128 µg/mL and the MIC (Streptococcus pneumoniae [20]) was over 256 µg/mL. The MIC (Staphylococcus aureus [21]) was over 256 µg/mL, the MIC (Streptococcus pneumoniae [22]) was over 256 µg/mL and the MIC (Streptococcus pyogenes) was over 256 µg/mL. The MIC (Staphylococcus aureus [9]) was over 128 µg/mL and the MIC (Staphylococcus aureus [23]) was over 256 µg/mL.
C=C[C@]1(C)C[C@@H](OC(=O)CSCCN(CC)CC)[C@]2(C)[C@H](C)CC[C@]3(CCC(=O)[C@H]32)[C@@H](C)[C@@H]1O [TIAMULIN] gave an Activity (Staphylococcus aureus [24]) of -0.57 log10CFU/ml.
Molecule O=C(N/N=C/c1cn(-c2ccccc2)nc1-c1ccccc1)c1cccc(-n2cc(-c3ccccc3)nn2)c1 has an MIC (Staphylococcus aureus [25]) of 4 µg/mL (≈ 7.85 µM), an MIC (Pseudomonas aeruginosa [26]) of 4 µg/mL (≈ 7.85 µM) and an MIC (Escherichia coli [27]) of 4 µg/mL (≈ 7.85 µM).
C=C[C@]1(C)C[C@@H](OC(=O)CO)C2(C)[C@H](C)CCC3(CCC(=O)[C@H]32)[C@@H](C)[C@@H]1O (some centres not stated) gave an MIC (Staphylococcus aureus [28]) of 2 µg/mL (≈ 5.28 µM), an MIC (Staphylococcus aureus [29]) of 2 µg/mL (≈ 5.28 µM) and an MIC (Staphylococcus aureus [30]) of 2 µg/mL (≈ 5.28 µM). For the same molecule, the MIC (Staphylococcus aureus [31]) was 2 µg/mL (≈ 5.28 µM), the MIC (Staphylococcus aureus [32]) was 2 µg/mL (≈ 5.28 µM) and the MIC (Staphylococcus aureus [33]) was 2 µg/mL (≈ 5.28 µM). It also gave an MIC (Staphylococcus aureus [34]) of 2 µg/mL (≈ 5.28 µM) and an MIC (Staphylococcus aureus [35]) of 2 µg/mL (≈ 5.28 µM).
